Assay: mn = molality of the nth substance listed, in mol/kg
Conditions: 350 kPa, Liquid; for apparent molar heat capacity: Extra sensitive DSC

OC[C@@H](O)[C@@H](O)[C@@H](O)CO [SRS-1,2,3,4,5-pentanepentol] + O
Conditions | apparent molar heat capacity [J/K/mol] | mass density [kg/m3]
278.15 K, m1 = 0.0196 | 335 | 1001.15
278.15 K, m1 = 0.0506 | 329.5 | 1002.66
278.15 K, m1 = 0.1042 | 335.2 | 1005.31
278.15 K, m1 = 0.2591 | 334.4 | 1012.83
278.15 K, m1 = 0.5092 | 334.9 | 1024.77
278.15 K, m1 = 0.9969 | 336.5 | 1046.03
278.15 K, m1 = 1.998 | 336.2 | 1084.53
278.15 K, m1 = 3.177 | 339.7 | 1119.46
283.15 K, m1 = 0.0196 | 354 | 1000.8
283.15 K, m1 = 0.0506 | 343 | 1002.31
283.15 K, m1 = 0.1042 | 350.4 | 1004.94
283.15 K, m1 = 0.2591 | 349.6 | 1012.39
283.15 K, m1 = 0.5092 | 349.7 | 1024.17
283.15 K, m1 = 0.9969 | 350.6 | 1045.12
283.15 K, m1 = 1.998 | 349.4 | 1083.19
283.15 K, m1 = 3.177 | 351.5 | 1117.64
288.15 K, m1 = 0.0196 | 368 | 1000.18
288.15 K, m1 = 0.0506 | 354.3 | 1001.7
288.15 K, m1 = 0.1042 | 362 | 1004.3
288.15 K, m1 = 0.2591 | 361.4 | 1011.68
288.15 K, m1 = 0.5092 | 361.4 | 1023.3
288.15 K, m1 = 0.9969 | 361.7 | 1044.05
288.15 K, m1 = 1.998 | 359.9 | 1081.81
288.15 K, m1 = 3.177 | 361.1 | 1115.96
293.15 K, m1 = 0.0196 | 377 | –
293.15 K, m1 = 0.0506 | 365.3 | –
293.15 K, m1 = 0.1042 | 371.7 | –
293.15 K, m1 = 0.2591 | 371.2 | –
293.15 K, m1 = 0.5092 | 371 | –
293.15 K, m1 = 0.9969 | 371 | –
293.15 K, m1 = 1.998 | 368.5 | –
293.15 K, m1 = 3.177 | 369.4 | –
298.15 K, m1 = 0.0196 | 385 | 998.09
298.15 K, m1 = 0.0506 | 375.1 | 999.6
298.15 K, m1 = 0.1042 | 380.2 | 1002.18
298.15 K, m1 = 0.2591 | 379.6 | 1009.48
298.15 K, m1 = 0.5092 | 379.3 | 1020.79
298.15 K, m1 = 0.9969 | 379 | 1041.23
298.15 K, m1 = 1.998 | 376.1 | 1078.43
298.15 K, m1 = 3.177 | 376.6 | 1112.13
303.15 K, m1 = 0.0196 | 392 | –
303.15 K, m1 = 0.0506 | 383.2 | –
303.15 K, m1 = 0.1042 | 387.5 | –
303.15 K, m1 = 0.2591 | 386.8 | –
303.15 K, m1 = 0.5092 | 386.4 | –
303.15 K, m1 = 0.9969 | 385.9 | –
303.15 K, m1 = 1.998 | 382.8 | –
303.15 K, m1 = 3.177 | 383 | –
308.15 K, m1 = 0.0196 | 397 | 995.08
308.15 K, m1 = 0.0506 | 389.5 | 996.56
308.15 K, m1 = 0.1042 | 393.6 | 999.1
308.15 K, m1 = 0.2591 | 393 | 1006.35
308.15 K, m1 = 0.5092 | 392.6 | 1017.44
308.15 K, m1 = 0.9969 | 392 | 1037.61
308.15 K, m1 = 1.998 | 388.8 | 1074.35
308.15 K, m1 = 3.177 | 388.8 | 1107.66
313.15 K, m1 = 0.0196 | 403 | –
313.15 K, m1 = 0.0506 | 395.7 | –
313.15 K, m1 = 0.1042 | 399.2 | –
313.15 K, m1 = 0.2591 | 398.6 | –
313.15 K, m1 = 0.5092 | 398.2 | –
313.15 K, m1 = 0.9969 | 397.4 | –
313.15 K, m1 = 1.998 | 394.1 | –
313.15 K, m1 = 3.177 | 393.9 | –
318.15 K, m1 = 0.0196 | 408 | 991.29
318.15 K, m1 = 0.0506 | 401.1 | 992.73
318.15 K, m1 = 0.1042 | 404.3 | 995.28
318.15 K, m1 = 0.2591 | 403.7 | 1002.45
318.15 K, m1 = 0.5092 | 403.2 | 1013.36
318.15 K, m1 = 0.9969 | 402.3 | 1033.3
318.15 K, m1 = 1.998 | 398.9 | 1069.71
318.15 K, m1 = 3.177 | 398.6 | 1102.66
323.15 K, m1 = 0.0196 | 412.3 | –
323.15 K, m1 = 0.0506 | 405.8 | –
323.15 K, m1 = 0.1042 | 408.7 | –
323.15 K, m1 = 0.2591 | 408.1 | –
323.15 K, m1 = 0.5092 | 407.6 | –
323.15 K, m1 = 0.9969 | 406.7 | –
323.15 K, m1 = 1.998 | 403.3 | –
323.15 K, m1 = 3.177 | 402.8 | –
328.15 K, m1 = 0.0196 | 415.7 | 986.75
328.15 K, m1 = 0.0506 | 409.7 | 988.19
328.15 K, m1 = 0.1042 | 412.7 | 990.72
328.15 K, m1 = 0.2591 | 412.2 | 997.84
328.15 K, m1 = 0.5092 | 411.6 | 1008.63
328.15 K, m1 = 0.9969 | 410.7 | 1028.38
328.15 K, m1 = 1.998 | 407.3 | 1064.46
328.15 K, m1 = 3.177 | 406.7 | 1097.15
333.15 K, m1 = 0.0196 | 419.1 | –
333.15 K, m1 = 0.0506 | 413.4 | –
333.15 K, m1 = 0.1042 | 416.3 | –
333.15 K, m1 = 0.2591 | 415.8 | –
333.15 K, m1 = 0.5092 | 415.3 | –
333.15 K, m1 = 0.9969 | 414.3 | –
333.15 K, m1 = 1.998 | 410.9 | –
333.15 K, m1 = 3.177 | 410.3 | –
338.15 K, m1 = 0.0196 | 422.2 | 981.58
338.15 K, m1 = 0.0506 | 416.9 | 983.05
338.15 K, m1 = 0.1042 | 419.6 | 985.54
338.15 K, m1 = 0.2591 | 419.2 | 992.64
338.15 K, m1 = 0.5092 | 418.6 | 1003.33
338.15 K, m1 = 0.9969 | 417.6 | 1022.96
338.15 K, m1 = 1.998 | 414.3 | 1058.79
338.15 K, m1 = 3.177 | 413.6 | 1091.26
343.15 K, m1 = 0.0196 | 424.8 | –
343.15 K, m1 = 0.0506 | 420 | –
343.15 K, m1 = 0.1042 | 422.7 | –
343.15 K, m1 = 0.2591 | 422.2 | –
343.15 K, m1 = 0.5092 | 421.6 | –
343.15 K, m1 = 0.9969 | 420.6 | –
343.15 K, m1 = 1.998 | 417.3 | –
343.15 K, m1 = 3.177 | 416.5 | –
348.15 K, m1 = 0.0196 | 427.6 | 975.89
348.15 K, m1 = 0.0506 | 422.8 | 977.36
348.15 K, m1 = 0.1042 | 425.4 | 979.79
348.15 K, m1 = 0.2591 | 424.9 | 986.84
348.15 K, m1 = 0.5092 | 424.3 | 997.49
348.15 K, m1 = 0.9969 | 423.3 | 1017.01
348.15 K, m1 = 1.998 | 420.1 | 1052.65
348.15 K, m1 = 3.177 | 419.3 | 1084.97
353.15 K, m1 = 0.0196 | 429.6 | –
353.15 K, m1 = 0.0506 | 424.8 | –
353.15 K, m1 = 0.1042 | 427.8 | –
353.15 K, m1 = 0.2591 | 427.3 | –
353.15 K, m1 = 0.5092 | 426.7 | –
353.15 K, m1 = 0.9969 | 425.7 | –
353.15 K, m1 = 1.998 | 422.6 | –
353.15 K, m1 = 3.177 | 421.8 | –
358.15 K, m1 = 0.0196 | 431.8 | 969.65
358.15 K, m1 = 0.0506 | 426.7 | 971.12
358.15 K, m1 = 0.1042 | 430.1 | 973.52
358.15 K, m1 = 0.2591 | 429.5 | 980.54
358.15 K, m1 = 0.5092 | 428.9 | 991.18
358.15 K, m1 = 0.9969 | 427.9 | 1010.61
358.15 K, m1 = 1.998 | 424.9 | 1046.1
358.15 K, m1 = 3.177 | 424 | 1078.29
363.15 K, m1 = 0.0196 | 433.8 | –
363.15 K, m1 = 0.0506 | 427.7 | –
363.15 K, m1 = 0.1042 | 431.7 | –
363.15 K, m1 = 0.2591 | 431.2 | –
363.15 K, m1 = 0.5092 | 430.7 | –
363.15 K, m1 = 0.9969 | 429.8 | –
363.15 K, m1 = 1.998 | 426.9 | –
363.15 K, m1 = 3.177 | 425.9 | –
368.15 K, m1 = 0.0196 | – | 962.93
368.15 K, m1 = 0.0506 | – | 964.44
368.15 K, m1 = 0.1042 | – | 966.8
368.15 K, m1 = 0.2591 | – | 973.76
368.15 K, m1 = 0.5092 | – | 984.4
368.15 K, m1 = 0.9969 | – | 1003.76
368.15 K, m1 = 1.998 | – | 1039.13
368.15 K, m1 = 3.177 | – | 1071.22

— the NIST ThermoML archive (doi:10.1016/j.jct.2006.08.009)
